Experimental data from patent publication US20140357512A1, “HISTONE DEACETYLASE (HDAC) BIOMARKERS IN MULTIPLE MYELOMA” (priority 2013, published 2014).

Tested on: human myeloma cell line MM.1S
Test: SILAC acetylated-lysine peptide profiling, HDAC inhibitor vs DMSO (light/heavy ratio)
Assay type: cell-based
Excerpt: An embodiment of the invention comprises utilizing the SILAC method in order to quantitate changes in protein expression between two or more populations of cells. The SILAC method is a technique based on mass spectrometry that detects differences in protein abundance among samples using non-radioactive isotopic labeling. The SILAC method is known in the art, and described in detail in Ong et al., “Stable Isotope Labeling by Amino Acids in Cell Culture, SILAC, as a Simple and Accurate Approach to Expression Proteomics”, Molecular & Cellular Proteomics, vol. 1, pp. 376-386 (2002), which is incorporated herein by reference in its entirety.
Briefly, the SILAC method involves growing two populations of cells in cell culture. The first population of cells is grown in growth media containing normal amino acids (“normal media”). The second population of cells is grown in media lacking a standard essential amino acid (such as lysine), but is then supplemented with a non-radioactive, isotopically labeled form of that essential amino acid (such as lysine labeled with ^13C atoms, rather than normal ^12C atoms), which is called “heavy media”. When the two populations of cells are each growing in the medium, they incorporate the amino acids into all of their proteins. The growth of cells maintained in the heavy media is no different from that in normal media. All peptides containing the heavy amino acids are heavier than their normal counterparts. The cells from each of the two populations of cells are lysed. The lysates from each of the two cell populations are then combined. The combined cell lysates are then analyzed by mass spectrometry. Pairs of chemically identical peptides of different stable isotope composition can be differentiated in a mass spectrometer due to their difference in mass. The ratio of peak intensities in the mass spectrum for such peptide pairs reflects the abundance ratio for the two proteins.
This example describes SILAC studies that were performed to compare the effects of three different HDAC inhibitors (Compound A, Compound B, and tubastatin A) to a control on a human multiple myeloma cell line. The HDAC inhibitors were also compared amongst themselves to determine differences in their effects.
A human myeloma cell line MM.1S was grown using either ^12C (light) or ^13C (heavy) lysine containing culture medium. The “heavy” cells were treated with DMSO as the control, and the “light” cells were treated with a single HDAC inhibitor at 37° C. for 6 hours. The heavy and light cells were lysed, and the lysates were mixed in 1:1 ratio and digested with the protease trypsin. The acetylated lysine containing peptides (due to the action of the HDAC inhibitor) in the digested peptide pool were captured by a non-specific anti-acetylated lysine antibody cocktail (the antibodies identify both light and heavy acetylated peptides), and subjected to mass spectrometry analysis in order to identify thousands of individual peptides.
Thousands of peptides were identified in pairs (^12C and ^13C) due to their known mass differences. The amino acid sequence and quantitative ratio (Light/Heavy) of a given peptide in two differentially treated cell lysates were then determined and annotated with their possible protein (gene) sources.
As stated above, three HDAC inhibitors (Compound A, Compound B, and Tubastatin A) were used. Thus, the SILAC method was performed three times, with a different HDAC inhibitor compared to a control each time. Accordingly, there are three pairs of quantitative data in the table below, i.e., Compound A:DMSO, Compound B:DMSO, and Tubastatin A:DMSO. A cut-off of 1.30 fold of change (increase or decrease) was then used to determine “changed” or “+” in the table, and any peptides with a fold of change less than 1.3 fold were determined to be “unchanged” or “0” in the table. Those peptides that were not identified were marked as “NA” in the table. […]

O=C(CCCCCCNC(=O)c1cnc(N(c2ccccc2)c2ccccc2)nc1)NO [Compound A, 2-(diphenylamino)-N-(7-(hydroxyamino)-7-oxoheptyl)pyrimidine-5-carboxamide]
light to heavy ratio (L/H ratio) of acetylated peptide FVVEK(ac)AEQQK (SEQ ID NO: 263) (Prohibitin [202], PHB, drug:DMSO): 0.42 log 2 | light to heavy ratio (L/H ratio) of acetylated peptide VYVLK(ac)FK (SEQ ID NO: 520) (Proteasomal ubiquitin receptor ADRM1 [97], gene ADRM1, inhibitor:DMSO): −0.50 log 2 | light to heavy ratio (L/H ratio) of acetylated peptide FEYK(ac)YSFK (SEQ ID NO: 340) (Protein ERGIC-53 [49], LMAN1, drug:DMSO): 0.00 log 2 | light to heavy ratio (L/H ratio) of acetylated peptide HFAFK(ac)[…] (SEQ ID NO: 554) (Protein FAM3C [72], gene FAM3C, inhibitor:DMSO): 0.40 log 2 | light to heavy ratio (L/H ratio), log 2 scale, acetylated peptide […](ac)PTK (SEQ ID NO: 804) (Protein Jade-3 [735], gene PHF16, drug:DMSO): 1.00 | light to heavy ratio (L/H ratio), log 2 scale, acetylated peptide IANILK(ac)[…] (SEQ ID NO: 803) (Protein disulfide-isomerase A4 [109], gene PDIA4, drug:DMSO): 1.00 | light to heavy ratio (L/H ratio) of acetylated peptide GYPTIK(ac)FFR (SEQ ID NO: 541) (Protein disulfide-isomerase [103], gene P4HB, inhibitor:DMSO): 0.39 log 2 | light to heavy ratio (L/H ratio) of acetylated peptide THILLFLPK(ac)SVSDYDGK (SEQ ID NO: 297) (Protein disulfide-isomerase [263], P4HB, drug:DMSO): 0.75 log 2 | light to heavy ratio (L/H ratio) of acetylated peptide VLVGK(ac)[…] (SEQ ID NO: 303) (Protein disulfide-isomerase [375], P4HB, drug:DMSO): 0.99 log 2 | light to heavy ratio (L/H ratio) of acetylated peptide […](ac)K (SEQ ID NO: 286) (Protein disulfide-isomerase [385], P4HB, drug:DMSO): 0.62 log 2 | light to heavy ratio (L/H ratio), log 2 scale, acetylated peptide VYK(ac)EMYK (SEQ ID NO: 777) (Putative annexin A2-like protein [148], gene ANXA2P2, drug:DMSO): 1.00 | light to heavy ratio (L/H ratio), log 2 scale, acetylated peptide SVPHLQK(ac)VFDR (SEQ ID NO: 776) (Putative annexin A2-like protein [227], gene ANXA2P2, drug:DMSO): 1.00 | light to heavy ratio (L/H ratio) of acetylated peptide SEVDMLK(ac)IR (SEQ ID NO: 295) (Putative annexin A2-like protein [302], ANXA2P2, drug:DMSO): 0.71 log 2 | light to heavy ratio (L/H ratio) of acetylated peptide RMELK(ac)ADQLYK (SEQ ID NO: 275) (Pyruvate dehydrogenase E1 component subunit alpha testis-specific form mitochondrial [75], PDHA2, drug:DMSO): 0.51 log 2 | L/H ratio of acetylated peptide EIDSVK(ac)[…] (SEQ ID NO: 73) (RAC2 [153], log 2 scale, drug vs DMSO): 0.00 | L/H ratio of acetylated peptide (ac)ADK(ac)[…] (SEQ ID NO: 74) (RBBP4 [4], log 2 scale, drug vs DMSO): 0.00 | L/H ratio of acetylated peptide ACFYNLDK(ac)FR (SEQ ID NO: 75) (RBM17 [391], log 2 scale, drug vs DMSO): 0.00 | L/H ratio of acetylated peptide […](ac)SIPTLISR (SEQ ID NO: 76) (RCC1 [366], log 2 scale, drug vs DMSO): 0.00 | L/H ratio of acetylated peptide FIDTTSK(ac)FGHGR (SEQ ID NO: 83) (RPL3L [373], log 2 scale, drug vs DMSO): 0.00 | L/H ratio of acetylated peptide LNILK(ac)LAPGGHVGR (SEQ ID NO: 85) (RPL4 [239], log 2 scale, drug vs DMSO): 0.00 | L/H ratio of acetylated peptide AASLK(ac)SNYNLPMHK (SEQ ID NO: 84) (RPL4 [274], log 2 scale, drug vs DMSO): 0.00 | L/H ratio of acetylated peptide NFLGEK(ac)YIR (SEQ ID NO: 86) (RPL9 [121], log 2 scale, drug vs DMSO): 0.00 | L/H ratio of acetylated peptide TGCIGAK(ac)HR (SEQ ID NO: 77) (RPL11 [154], log 2 scale, drug vs DMSO): 0.00 | L/H ratio of acetylated peptide WFQQK(ac)YDGIILPGK (SEQ ID NO: 78) (RPL11 [169], log 2 scale, drug vs DMSO): 0.00 | L/H ratio of acetylated peptide […](ac)SR (SEQ ID NO: 79) (RPL18A [41], log 2 scale, drug vs DMSO): 0.00 | L/H ratio of acetylated peptide IEHIK(ac)HSK (SEQ ID NO: 80) (RPL21, SNORD102, SNORA27, RPL21P19 [97], log 2 scale, drug vs DMSO): 0.00 | L/H ratio of acetylated peptide YLK(ac)YLTK (SEQ ID NO: 81) (RPL22 [84], log 2 scale, drug vs DMSO): 0.00 | L/H ratio of acetylated peptide INFDK(ac)YHPGYFGK (SEQ ID NO: 82) (RPL27A [47], log 2 scale, drug vs DMSO): 0.00 | L/H ratio of acetylated peptide (RPPQTIK(ac)SVR (SEQ ID NO: 492), GDP-D-glucose phosphorylase C15orf58 [113], C15orf58): −1.00 log 2 | L/H ratio of acetylated peptide LK(ac)[…] (SEQ ID NO: 89) (RPS4X [53], log 2 scale, drug vs DMSO): 0.00 | L/H ratio of acetylated peptide SFQK(ac)IQVR (SEQ ID NO: 90) (RPS7 [74], log 2 scale, drug vs DMSO): 0.00 | L/H ratio of acetylated peptide ELLTLDEK(ac)DPR (SEQ ID NO: 91) (RPS9 [66], log 2 scale, drug vs DMSO): 0.00 | L/H ratio of acetylated peptide LQTQVFK(ac)LGLAK (SEQ ID NO: 92) (RPS9 [116], log 2 scale, drug vs DMSO): 0.00 | L/H ratio of acetylated peptide […](ac)GK (SEQ ID NO: 87) (RPS23 [135], log 2 scale, drug vs DMSO): 0.00 | L/H ratio of acetylated peptide LAVLK(ac)YYK (SEQ ID NO: 88) (RPS27A [104], log 2 scale, drug vs DMSO): 0.00 | light to heavy ratio (L/H ratio) of acetylated peptide LLNK(ac)HGIK (SEQ ID NO: 528) (Ribosomal L1 domain-containing protein 1 [120], gene RSL1D1, inhibitor:DMSO): −0.43 log 2
